Columns and labels:
Glucagon receptor [1] = target: T1, Glucagon receptor (Rattus norvegicus, UniProt P30082); assay: Binding affinity towards Glucagon receptor in rat liver plasma membranes by displacement of 125 I-labelled glucagon; assay type: cell membranes
Glucagon receptor [2] = target: T1, Glucagon receptor; assay: pA2 value against Glucagon Receptor; settings: read-out: pA2 (converted)
[3] = target: Glucagon receptor (Rattus norvegicus) (UniProt P30082); assay: Percent stimulation of cAMP production over basal.; assay type: functional; design: concentration or dose not given beside the values
[4] = target: Glucagon receptor (Rattus norvegicus) (UniProt P30082); assay: Relative binding potency expressed as receptor binding IC50 for glucagon by receptor binding IC50 for compound

Chain of Glucagon receptor (Rattus norvegicus) (P30082 whole entry): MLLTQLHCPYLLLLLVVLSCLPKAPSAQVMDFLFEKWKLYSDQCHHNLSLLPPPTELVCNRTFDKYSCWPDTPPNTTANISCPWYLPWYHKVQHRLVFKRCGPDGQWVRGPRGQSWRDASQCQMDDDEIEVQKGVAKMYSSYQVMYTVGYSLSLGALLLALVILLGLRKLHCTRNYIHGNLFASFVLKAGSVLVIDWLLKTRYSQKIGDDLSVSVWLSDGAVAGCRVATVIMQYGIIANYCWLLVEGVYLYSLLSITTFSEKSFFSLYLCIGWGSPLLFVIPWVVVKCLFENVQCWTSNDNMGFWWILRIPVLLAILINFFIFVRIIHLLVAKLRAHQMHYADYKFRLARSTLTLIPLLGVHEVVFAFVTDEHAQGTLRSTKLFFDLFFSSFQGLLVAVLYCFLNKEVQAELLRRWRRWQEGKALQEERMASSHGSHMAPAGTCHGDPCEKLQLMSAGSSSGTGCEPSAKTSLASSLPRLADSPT
T1 sequence (P30082 whole entry): as above

Row | Structure (SMILES) | IC50 (Glucagon receptor [1]) | Kb (Glucagon receptor [2]) | Activity [3] | Activity [4]
1 | CSCC[C@H](NC(=O)[C@H](CC(C)C)NC(=O)[C@H](Cc1c[nH]c2ccccc12)NC(=O)[C@H](CCC(N)=O)NC(=O)[C@@H](NC(=O)[C@H](Cc1ccccc1)NC(=O)[C@H](CC(=O)O)NC(=O)[C@H](CCC(N)=O)NC(=O)[C@H](C)NC(=O)[C@H](CCCNC(=N)N)NC(=O)[C@H](CCCNC(=N)N)NC(=O)[C@H](CO)NC(=O)[C@H](CC(=O)O)NC(=O)[C@H](CC(C)C)NC(=O)[C@H](Cc1ccc(O)cc1)NC(=O)[C@H](CCCCN)NC(=O)[C@H](CO)NC(=O)[C@H](Cc1ccc(O)cc1)NC(=O)[C@H](CCC(=O)O)NC(=O)[C@H](CO)NC(=O)[C@@H](NC(=O)[C@@H](NC(=O)CNC(=O)[C@H](CCC(N)=O)NC(=O)[C@@H](N)CO)[C@@H](C)O)[C@@H](C)O)C(C)C)C(=O)N[C@@H](CC(N)=O)C(=O)N[C@H](C(=O)O)[C@@H](C)O (stereo in doubt; 13) | 2000 nM | 631 nM |  | 
2 | CSCC[C@H](NC(=O)[C@H](CC(C)C)NC(=O)[C@H](Cc1c[nH]c2ccccc12)NC(=O)[C@H](CCC(N)=O)NC(=O)[C@@H](NC(=O)[C@H](Cc1ccccc1)NC(=O)[C@H](CC(=O)O)NC(=O)[C@H](CCC(N)=O)NC(=O)[C@H](C)NC(=O)[C@H](CCCNC(=N)N)NC(=O)[C@H](CCCNC(=N)N)NC(=O)[C@H](CO)NC(=O)[C@H](CC(=O)O)NC(=O)[C@H](CC(C)C)NC(=O)[C@H](Cc1ccc(O)cc1)NC(=O)[C@H](CCCCN)NC(=O)[C@H](CO)NC(=O)[C@H](Cc1ccc(O)cc1)NC(=O)[C@H](CCC(=O)O)NC(=O)[C@H](CO)NC(=O)[C@@H](NC(=O)[C@@H](NC(=O)CNC(=O)[C@H](CCC(N)=O)NC(=O)[C@@H](N)CO)[C@@H](C)O)[C@@H](C)O)C(C)C)C(=O)N[C@@H](CC(N)=O)C(=O)N[C@H](C(=O)O)[C@@H](C)O (stereo in doubt; 12) | 1000 nM | 794 nM |  | 
3 | CCCC[C@H](NC(=O)[C@@H](NC(=O)CNC(=O)[C@H](CCC(N)=O)NC(=O)[C@@H](N)CO)[C@@H](C)O)C(=O)N[C@H](C(=O)N[C@@H](CO)C(=O)N[C@@H](CCC(=O)O)C(=O)N[C@@H](Cc1ccc(O)cc1)C(=O)N[C@@H](CO)C(=O)N[C@@H](CCCCN)C(=O)N[C@@H](Cc1ccc(O)cc1)C(=O)N[C@@H](CC(C)C)C(=O)N[C@@H](CC(=O)O)C(=O)N[C@@H](CO)C(=O)N[C@@H](CCCN=C(N)N)C(=O)N[C@@H](CCCN=C(N)N)C(=O)N[C@@H](C)C(=O)N[C@@H](CCC(N)=O)C(=O)N[C@@H](CC(=O)O)C(=O)N[C@@H](Cc1ccccc1)C(=O)N[C@H](C(=O)N[C@@H](CCC(N)=O)C(=O)N[C@@H](Cc1c[nH]c2ccccc12)C(=O)N[C@@H](CC(C)C)C(=O)N[C@@H](CCSC)C(=O)N[C@@H](CC(N)=O)C(=O)N[C@H](C(N)=O)[C@@H](C)O)C(C)C)[C@@H](C)O | 48 nM |  |  | 
4 | CSCC[C@H](NC(=O)[C@H](CC(C)C)NC(=O)[C@H](Cc1c[nH]c2ccccc12)NC(=O)[C@H](CCC(N)=O)NC(=O)[C@@H](NC(=O)[C@H](Cc1ccccc1)NC(=O)[C@H](CC(=O)O)NC(=O)[C@H](CCC(N)=O)NC(=O)[C@H](C)NC(=O)[C@H](CCCNC(=N)N)NC(=O)[C@H](CCCNC(=N)N)NC(=O)[C@H](CO)NC(=O)[C@H](CC(=O)O)NC(=O)[C@H](CC(C)C)NC(=O)[C@H](Cc1ccc(O)cc1)NC(=O)[C@H](CCCCN)NC(=O)[C@H](CO)NC(=O)[C@H](Cc1ccc(O)cc1)NC(=O)[C@H](CC(=O)O)NC(=O)[C@H](CO)NC(=O)[C@@H](NC(=O)[C@@H](NC(=O)CNC(=O)[C@H](CCC(N)=O)NC(=O)[C@@H](N)CO)[C@@H](C)O)[C@@H](C)O)C(C)C)C(=O)N[C@@H](CC(N)=O)C(=O)N[C@H](C(=O)O)[C@@H](C)O | 200 nM | 708 nM |  | 
5 | CSCC[C@@H](NC(=O)[C@@H](CC(C)C)NC(=O)[C@@H](Cc1c[nH]c2ccccc12)NC(=O)[C@@H](CCC(N)=O)NC(=O)[C@H](NC(=O)[C@@H](Cc1ccccc1)NC(=O)[C@@H](CC(=O)O)NC(=O)[C@@H](CCC(N)=O)NC(=O)[C@@H](C)NC(=O)[C@@H](CCCN=C(N)N)NC(=O)[C@@H](CCCN=C(N)N)NC(=O)[C@@H](CO)NC(=O)[C@@H](CC(=O)O)NC(=O)[C@@H](CC(C)C)NC(=O)[C@@H](Cc1ccc(O)cc1)NC(=O)[C@@H](CCCCN)NC(=O)[C@@H](CO)NC(=O)[C@@H](Cc1ccc(O)cc1)NC(=O)[C@@H](CCC(=O)O)NC(=O)[C@@H](CO)NC(=O)[C@H](NC(=O)[C@@H](Cc1ccc(O)cc1)NC(=O)[C@H](NC(=O)CNC(=O)[C@@H](CCC(N)=O)NC(=O)[C@H](N)CO)[C@H](C)O)[C@H](C)O)C(C)C)C(=O)N[C@H](CC(N)=O)C(=O)N[C@@H](C(N)=O)[C@H](C)O |  |  | 0% | 3.8%
6 | CCCC[C@H](NC(=O)[C@H](NC(=O)CNC(=O)[C@@H](CCC(N)=O)NC(=O)[C@H](N)CO)[C@H](C)O)C(=O)N[C@@H](C(=O)N[C@H](CO)C(=O)N[C@H](CCC(=O)O)C(=O)N[C@H](Cc1ccc(O)cc1)C(=O)N[C@H](CO)C(=O)N[C@H](CCCCN)C(=O)N[C@H](Cc1ccc(O)cc1)C(=O)N[C@H](CC(C)C)C(=O)N[C@H](CC(=O)O)C(=O)N[C@H](CO)C(=O)N[C@H](CCCN=C(N)N)C(=O)N[C@H](CCCN=C(N)N)C(=O)N[C@H](C)C(=O)N[C@H](CCC(N)=O)C(=O)N[C@H](CC(=O)O)C(=O)N[C@H](Cc1ccccc1)C(=O)N[C@@H](C(=O)N[C@H](CCC(N)=O)C(=O)N[C@H](Cc1c[nH]c2ccccc12)C(=O)N[C@H](CC(C)C)C(=O)N[C@H](CCSC)C(=O)N[C@H](CC(N)=O)C(=O)N[C@@H](C(N)=O)[C@H](C)O)C(C)C)[C@H](C)O |  |  | 12% | 3.1%
7 | CSCC[C@@H](NC(=O)[C@@H](CC(C)C)NC(=O)[C@@H](Cc1c[nH]c2ccccc12)NC(=O)[C@@H](CCC(N)=O)NC(=O)[C@H](NC(=O)[C@@H](Cc1ccccc1)NC(=O)[C@@H](CC(=O)O)NC(=O)[C@@H](CCC(N)=O)NC(=O)[C@@H](C)NC(=O)[C@@H](CCCN=C(N)N)NC(=O)[C@@H](CCCN=C(N)N)NC(=O)[C@@H](CO)NC(=O)[C@@H](CC(=O)O)NC(=O)[C@@H](CC(C)C)NC(=O)[C@@H](Cc1ccc(O)cc1)NC(=O)[C@@H](CCCCN)NC(=O)[C@@H](CO)NC(=O)[C@@H](Cc1ccc(O)cc1)NC(=O)[C@@H](CCC(=O)O)NC(=O)[C@@H](CO)NC(=O)[C@H](NC(=O)[C@H](NC(=O)CNC(=O)[C@@H](CCC(N)=O)NC(=O)[C@@H](CO)NC(=O)[C@H](N)Cc1c[nH]cn1)[C@H](C)O)[C@H](C)O)C(C)C)C(=O)N[C@H](CC(N)=O)C(=O)N[C@@H](C(N)=O)[C@H](C)O |  |  | 0% | 1.3%
8 | CSCC[C@@H](NC(=O)[C@@H](CC(C)C)NC(=O)[C@@H](Cc1c[nH]c2ccccc12)NC(=O)[C@@H](CCC(N)=O)NC(=O)[C@H](NC(=O)[C@@H](Cc1ccccc1)NC(=O)[C@@H](CC(=O)O)NC(=O)[C@@H](CCC(N)=O)NC(=O)[C@@H](C)NC(=O)[C@@H](CCCN=C(N)N)NC(=O)[C@@H](CCCN=C(N)N)NC(=O)[C@@H](CO)NC(=O)[C@@H](CC(=O)O)NC(=O)[C@@H](CC(C)C)NC(=O)[C@@H](Cc1ccc(O)cc1)NC(=O)[C@@H](CCCCN)NC(=O)[C@@H](CO)NC(=O)[C@@H](Cc1ccc(O)cc1)NC(=O)[C@@H](CC(=O)O)NC(=O)[C@@H](CO)NC(=O)[C@H](NC(=O)[C@H](NC(=O)CNC(=O)[C@@H](CCC(N)=O)NC(=O)[C@H](N)CO)[C@H](C)O)[C@H](C)O)C(C)C)C(=O)N[C@H](CC(N)=O)C(=O)N[C@@H](C(=O)O)[C@H](C)O |  |  | 0% | 1%
